Among the data in ChEMBL document CHEMBL1157045, “Study of a cyclopamine glucuronide prodrug for the selective chemotherapy of glioblastoma” (Eur J Med Chem, 2010) are IC50 and Activity values, retold here.

Active and inactive are the calls of the source. No cut-off for these calls is given here.

Test [1] in a line: Cytotoxicity against human U87 cells assessed as viability in presence of beta glucuronidase. Particulars: U-87 MG. The class given is functional, cell-based, U-87MG ATCC.
The next test relates to U-87MG ATCC. In words: Cytotoxicity against human U87 cells assessed as viability at 200 uM after 5 days by MTS assay. Type of test: functional, cell-based. (Formazan colour is commonly taken as a measure of viable cells.)

Turning to `CC1=C2C[C@H]3[C@@H](CC=C4C[C@@H](O)CC[C@@]43C)[C@@H]2CC[C@]12O[C@@H]1C[C@H](C)CN(C(=O)OCc3ccc(O[C@@H]4O[C@H](C(=O)O)[C@@H](O)[C@H](O)[C@H]4O)c([N+](=O)[O-])c3)[C@H]1[C@H]2C`, in test [1], the half-maximal inhibitory concentration (IC50) (commonly the midpoint of a concentration-inhibition curve) was found to be 21 µM. In addition, in the test on U-87MG ATCC, the outcome was inactive. In the case of `CC1=C2C[C@H]3[C@@H](CC=C4C[C@@H](O)CC[C@@]43C)[C@@H]2CC[C@]12O[C@@H]1C[C@H](C)CN[C@H]1[C@H]2C` [CYCLOPAMINE], the IC50 in test [1] worked out at 15.5 µM.
